Values of other authors as cited in PubChem BioAssay AID1259409 (Chemical Carcinogenesis Research Information System (CCRIS), 2018).

Tested on: rodent chemically induced tumor inhibition, incidence and multiplicity
Experiment: CCRIS tumor inhibitor studies

## CO[C@@]12[C@H](COC(N)=O)C3=C(C(=O)C(C)=C(N)C3=O)N1C[C@@H]1N[C@@H]12
Carcinogen: N-BUTYL-N-(4-HYDROXYBUTYL)NITROSAMINE, 3817-11-6, Dose [Inhibitor]: 0.5 ML (2000 UG/ML) INSTILLED TRANSURETHRALLY 2/WK FOR 2 WK POST CARCINOGEN DOSE (STUDY DURATION: 20 WK), Route [Inhibitor]: INTRAVESICAL, Species: RAT, Strain/Sex: WISTAR/MALE, Target Tissue: Type of Lesion: BLADDER: CARCINOMA, Dose [Carcinogen]: 0.05% IN DRINKING WATER FOR 12 WK, Promoter: NONE USED
  tumour outcome (control, treated, inhibition, significance): 14/20 (70%), 8/10 (80%), -14%, not calculated
Carcinogen: N-BUTYL-N-(4-HYDROXYBUTYL)NITROSAMINE, 3817-11-6, Dose [Inhibitor]: 0.5 ML (2000 UG/ML) INSTILLED TRANSURETHRALLY 2/WK FOR 2 WK POST CARCINOGEN DOSE (STUDY DURATION: 20 WK), Route [Inhibitor]: INTRAVESICAL, Species: RAT, Strain/Sex: WISTAR/MALE, Target Tissue: Type of Lesion: BLADDER: PAPILLOMA, Dose [Carcinogen]: 0.05% IN DRINKING WATER FOR 12 WK, Promoter: NONE USED
  tumour outcome (control, treated, inhibition, significance): 6/20 (30%), 2/10 (20%), 33%, not calculated
Carcinogen: N-BUTYL-N-(4-HYDROXYBUTYL)NITROSAMINE, 3817-11-6, Dose [Inhibitor]: 2000 UG/ML INSTILLED CONTINUOUSLY FOR 2 WK POST CARCINOGEN DOSE (STUDY DURATION: 12 WK), Route [Inhibitor]: INTRAVESICAL, Species: RAT, Strain/Sex: WISTAR/MALE, Target Tissue: Type of Lesion: BLADDER: CARCINOMA, Dose [Carcinogen]: 0.05% IN DRINKING WATER FOR 12 WK, Promoter: NONE USED
  tumour outcome (control, treated, inhibition, significance): 14/20 (70%), 2/10 (20%), 71%, not calculated
Carcinogen: N-BUTYL-N-(4-HYDROXYBUTYL)NITROSAMINE, 3817-11-6, Dose [Inhibitor]: 2000 UG/ML INSTILLED CONTINUOUSLY FOR 2 WK POST CARCINOGEN DOSE (STUDY DURATION: 12 WK), Route [Inhibitor]: INTRAVESICAL, Species: RAT, Strain/Sex: WISTAR/MALE, Target Tissue: Type of Lesion: BLADDER: PAPILLOMA, Dose [Carcinogen]: 0.05% IN DRINKING WATER FOR 12 WK, Promoter: NONE USED
  tumour outcome (control, treated, inhibition, significance): 6/20 (30%), 2/10 (20%), 33%, not calculated

## CN(C)C(=O)Oc1cccc([N+](C)(C)C)c1
Carcinogen: AZOXYMETHANE, 25843-45-2, Dose [Inhibitor]: 0.1 MG/KG BW 1/2D IN DEPOT FORM BEGINNING 3 WK PRIOR TO FIRST CARCINOGEN DOSE (STUDY DURATION: 40 WK), Route [Inhibitor]: SUBCUTANEOUS, Species: RAT, Strain/Sex: WISTAR/MALE, Target Tissue: Type of Lesion: COLON: TUMOR, Dose [Carcinogen]: 7.4 MG/KG BW IN 0.9% SALINE SOLUTION 1/WK FOR 10 WK, Promoter: NONE USED
  tumour outcome (control, treated, inhibition, significance): 18/20 (90%), 9/19 (47%), 47%, p<0.02
Carcinogen: N-METHYL-N'-NITRO-N-NITROSOGUANIDINE, 70-25-7, Dose [Inhibitor]: 0, 0.075 MG/KG 1/2 D BEGINNING POST CARCINOGEN TREATMENT (STUDY DURATION: 52 WK), Route [Inhibitor]: SUBCUTANEOUS, Species: RAT, Strain/Sex: WISTAR/MALE, Target Tissue: Type of Lesion: STOMACH: ADENOCARCINOMA, Dose [Carcinogen]: 75 UG/ML IN DRINKING WATER FOR 25 WK, Promoter: NONE USED
  tumour outcome (control, treated, inhibition, significance): 16/20 (80%), 7/18 (39%), 51%, p<0.05
Carcinogen: N-METHYL-N'-NITRO-N-NITROSOGUANIDINE, 70-25-7, Dose [Inhibitor]: 0, 0.1 MG/KG IN OLIVE OIL SUSPENSION 1/D BEGINNING 1 WK POST LAST CARCINOGEN DOSE AND CONTINUING FOR DURATION OF STUDY (, Species: RAT, Strain/Sex: WISTAR/MALE, Target Tissue: Type of Lesion: GLANDULAR STOMACH: ADENOCARCINOMA, Dose [Carcinogen]: 50 UG/ML IN DRINKING WATER FOR 25 WK, Promoter: NONE USED
  tumour outcome (control, treated, inhibition, significance): 15/18 (83%), 7/19 (37%), 55%, p<0.02

## CC#C[C@]1(O)CC[C@H]2[C@@H]3CCC4=CC(=O)CCC4=C3[C@@H](c3ccc(N(C)C)cc3)C[C@@]21C
Carcinogen: 7,12-Dimethylbenz(a)anthracene (57-97-6), Dose [Inhibitor]: 10 mg administered daily for 28 days, Route [Inhibitor]: Subcutaneous, Species: Rat, Strain/Sex: Sprague-Dawley/Female, Target Tissue: Type of Lesion: Mammary gland: Adenocarcinoma and papillary carcinoma, Dose [Carcinogen]: 10 mg/kg once at 50 days of age, Promoter: None
  tumour outcome (control, treated, inhibition, significance): 12/13 (92%), 13/14 (93%), 0% ns
